Source: patent US20250018048A1, “FLUCONAZOLE-COX INHIBITOR HYBRIDS: A DUAL-ACTING CLASS OF ANTIFUNGAL AZOLES” (Ramot at Tel-Aviv University Ltd., priority 2022, published 2025)
≈ marks a conversion by molar mass, not a printed value.

Experiments:
Type in all cases: cell-based
[1] = system: C. auris ATCC MYA5001; assay: MIC broth double-dilution assay with MTT (CLSI M27-A3); settings: YPAD medium, 37° C., 24 h, growth score 0 or 1
Method: (§1) Minimal inhibitory concentration broth double-dilution assay: C. auris minimal inhibitory concentrations (MICs) were determined using CLSI M27-A3 guidelines with minor modifications. Starter cultures were streaked from glycerol stock onto YPAD agar plates and grown for 24 h at 37° C. Colonies were suspended in 1 mL PBS and diluted to 1×10^−3 optical density at 600 nm (OD600) and then diluted 1:100 into fresh medium. hybrids dissolved in DMSO were added to YPAD broth (32 μL stock solution in 1218 μL of YPAD broth), and serial double dilutions of hybrids in YPAD were prepared in flat-bottomed 96-well microplates (Corning) to enable testing of concentrations ranging from 64 μg/mL to 0.007 μg/mL. Control wells with yeast cells but no drug and blank wells containing only YPAD were prepared. An equal volume (100 μL) of yeast suspension in YPAD broth was added to each well with the exceptions of the blank wells. After incubation for 24 h at 37° C., MTT (50 μL of a 1 mg/mL solution in ddH2O) was added to each well followed by additional incubation at 37° C. for 2 h. MIC values (Table S3) were defined as the lowest concentration of an antifungal agent that caused a specified reduction in visible growth as per the CLSI M27-A3 protocol. The magnitude of reduction in visible growth was assessed using the following numerical scale: 0, optically clear; 1, slightly hazy; 2, prominent decrease (˜50%) in visible growth; 3, slight reduction in visible growth; and 4, no reduction in visible growth. The MIC was defined based on reduction in growth to 0 or 1. Results were confirmed in two independent experiments, and each concentration was tested in triplicate. FLC and VOR were used as control drugs.

[2] = system: C. auris ATCC MYA5002; assay: as above; settings: YPAD medium, 37° C., 24 h, growth score 0 or 1
Method: as §1

[3] = system: C. albicans SN152; assay: MIC80 broth double-dilution assay; settings: YPAD medium, 30° C., 24 h; parent strain of the erg11ΔΔ/erg3ΔΔ mutant
Method: (§2) The antifungal activities of the 24 azole-COX inhibitor hybrids were evaluated against a panel of 16 representative strains of different species of the genus Candida. Candida species cause both superficial and systemic infections. The panel included strains of C. albicans, C. glabrata, C. parapsilosis, C. tropicalis, C. guilliermondii, C. dubliniensis, and C. auris (Table S2). To evaluate antifungal activity, the minimal inhibitory concentration 80% (MIC80) values were determined, which were defined as the lowest drug concentrations with turbidity (measured at OD600) less than or equal to that of specific 1:5 dilutions of the growth control. As controls, FLC and VOR, were tested.
(§3) MIC80 values were determined using the broth microdilution method over a concentration range of 0.003-64 μg/mL. Orange circles represent C. albicans strains, yellow circles represent C. glabrata strains, and green circles represent C. parapsilosis, C. tropicalis, C. dubliniensis and C. auris. Cells were grown in YPAD medium at 30° C. (For C. auris strains 37° C.) 24 h. Each concentration was tested in triplicate, and results were confirmed in at least two independent experiments.
(§4) The clinically used FLC and VOR act primarily by preventing ergosterol biosynthesis via inhibition of CYP51. Analysis was done to determine whether fungal growth inhibition by the hybrids required the presence of the ERG11 gene that encodes for CYP51. The antifungal activities of hybrids 1 and 5 and of FLC and VOR were determined against an erg11ΔΔ/erg3ΔΔ mutant C. albicans strain and against C. albicans SN152 from which this double knockout strain was derived (Table S2). […] Yeast growth was followed at OD600 over 48 h in 96-well plates containing serial double dilutions of the tested hybrids.
(§5) C. albicans, C. glabrata, C. parapsilosis, C. guilliermondii, C. tropicalis, and C. dubliniensis MICs were determined using CLSI M27-A3 guidelines with minor modifications. Starter cultures were streaked from glycerol stock onto YPAD agar plates and grown for 24 h at 30° C. Colonies were suspended in 1 mL PBS and diluted to 1×10^−3 OD600 and then diluted 1:100 into fresh medium. Hybrids dissolved in DMSO were added to YPAD broth (32 μL stock solution in 1218 μL of YPAD broth), and serial double dilutions of hybrids in YPAD were prepared in flat-bottomed 96-well microplates (Corning) to enable testing of concentrations ranging from 64 μg/mL to 0.003 μg/mL. Control wells with yeast cells but no drug and blank wells containing only YPAD were prepared. An equal volume (100 μL) of yeast suspensions in YPAD broth was added to each well with the exceptions of the blank wells. MIC values (Tables S4-S6) were determined after 24 h at 30° C. by measuring the OD600 using a plate reader (Infinite M200 PRO, Tecan). MIC values were defined as the point at which the OD600 was reduced by >80% compared to the no-drug wells. Each concentration was tested in triplicate, and results were confirmed by two independent sets of experiments. FLC and VOR were used as control drugs.

[4] = system: C. parapsilosis ATCC 22019; assay: MIC80 broth double-dilution assay; settings: YPAD medium, 30° C., 24 h
Method: as §2, §3, §5

[5] = system: C. dubliniensis T-99; assay: MIC80 broth double-dilution assay; settings: YPAD medium, 30° C., 24 h
Method: as §2, §3, §5

[6] = system: C. albicans ATCC 90028; assay: MIC80 broth double-dilution assay; settings: YPAD medium, 30° C., 24 h
Method: as §2, §3, §5

[7] = system: C. albicans P-87; assay: MIC80 broth double-dilution assay; settings: YPAD medium, 30° C., 24 h
Method: as §2, §3, §5

[8] = system: C. tropicalis 660; assay: MIC80 broth double-dilution assay; settings: YPAD medium, 30° C., 24 h
Method: as §2, §3, §5

[9] = system: C. albicans SC5314; assay: MIC80 broth double-dilution assay; settings: YPAD medium, 30° C., 24 h
Method: as §2, §3, §5

[10] = system: C. albicans ATCC 24433; assay: MIC80 broth double-dilution assay; settings: YPAD medium, 30° C., 24 h
Method: as §2, §3, §5

[11] = system: C. guilliermondii T-47; assay: MIC80 broth double-dilution assay; settings: YPAD medium, 30° C., 24 h
Method: as §2, §5

[12] = system: panel of 16 representative strains of different species of the genus Candida; assay: Antifungal activity (MIC80) against a panel of Candida strains, comparison; settings: azole-susceptible strains
Method: as §2, §3, §5

[13] = system: C. albicans 742 (erg11ΔΔ/erg3ΔΔ mutant C. albicans strain); assay: MIC80 broth double-dilution assay, strain lacking CYP51; settings: YPAD medium, 30° C., 24 h; erg11ΔΔ/erg3ΔΔ mutant lacking CYP51
Method: as §2, §4, §5

[14] = system: erg11ΔΔ/erg3ΔΔ mutant C. albicans; assay: Growth curve analysis of C. albicans lacking CYP51; settings: entire range of concentrations (64 to 1 μg/mL), YPAD, 30° C., 48 h
Method: as §4
Cells of erg11ΔΔ/erg3ΔΔ mutant C. albicans were grown in YPAD media at 30° C. and treated with different concentrations of the tested hybrids. Growth was measured by recording the OD600 values every 40 minutes over a 48-h course on an automated plate reader.
Growth curve analyses: Growth curves were determined using the double-dilution method in 96-well plates. Starter cultures were streaked from glycerol stock onto YPAD agar plates and grown for 24 h at 30° C. Colonies were suspended in 1 mL PBS and diluted to 1×10^−3 OD600 and then diluted 1:100 into fresh medium. Hybrids dissolved in DMSO were added to YPAD broth (32 μL stock solution in 1218 μL of YPAD broth), and serial double dilutions of hybrids in YPAD were prepared in flat-bottomed 96-well microplates (Corning) to enable testing of concentrations ranging from 64 μg/mL to 1 μg/mL. Control wells with yeast cells but no drug (100% growth) and blank wells containing only YPAD (0% growth) were prepared. An equal volume (100 μL) of yeast suspensions in YPAD broth was added to each well with the exceptions of the blank wells. Growth was determined at 30° C. by measuring the OD600 using a plate reader (Infinite M200 PRO, Tecan) every 40 minutes over 48 h. Each concentration was tested in triplicate, and results were confirmed by two independent sets of experiments. FLC and VOR were used as control drugs.

Q: Which “MIC against C. auris 5001” value [1] does the source give for `CC(C)Cc1ccc([C@@H](C)C(=O)NC[C@](O)(Cn2cncn2)c2ccc(F)cc2F)cc1` [Hybrid 2] here?
A: The value was 0.06 mg/L (≈ 0.136 µM).

Q: And the “MIC against C. auris 5002” value [2]?
A: Its value is 1 mg/L (≈ 2.26 µM).

Q: And the “MIC80 against C. albicans SN152” value [3]?
A: Its value is 0.007 mg/L (≈ 0.0158 µM).

Q: And the “MIC80 against C. parapsilosis 22019” value [4]?
A: The value was 0.015 mg/L (≈ 0.0339 µM).

Q: What about the “MIC80 against C. dubliniensis T-99” value [5] of the same compound?
A: The value was 0.12 mg/L (≈ 0.271 µM).

Q: And the “MIC80 against C. albicans 90028” value [6]?
A: Its value is 0.007 mg/L (≈ 0.0158 µM).

Q: What about the “MIC80 against C. albicans P-87” value [7] of the same compound?
A: The value was 0.007 mg/L (≈ 0.0158 µM).

Q: What about the “MIC80 against C. tropicalis 660” value [8] of the same compound?
A: The value was 0.5 mg/L (≈ 1.13 µM).

Q: What about the “MIC80 against C. albicans SC5314” value [9] of the same compound?
A: The value was 0.007 mg/L (≈ 0.0158 µM).

Q: And the “MIC80 against C. albicans 24433” value [10]?
A: Its value is 0.015 mg/L (≈ 0.0339 µM).

Q: And the “MIC80 against C. guilliermondii T-47” value [11]?
A: The value was 0.06 mg/L (≈ 0.136 µM).

Q: What about the “Antifungal potency (MIC80) in comparison with FLC, VOR or the corresponding stereoisomer” value [12] of the same compound?
A: Its value is “lowest MIC80 values against all of the azole-susceptible strains”.

Q: And the “MIC80 against C. albicans 742” value [13]?
A: The value was 64 mg/L (≈ 145 µM).

Q: Which results are given for `CC(C)Cc1ccc([C@@H](C)C(=O)NC[C@@](O)(Cn2cncn2)c2ccc(F)cc2F)cc1` [Hybrid 3]?
A: MIC80 against C. albicans SN152 [3]: 0.06 mg/L (≈ 0.136 µM); MIC80 against C. parapsilosis 22019 [4]: 0.5 mg/L (≈ 1.13 µM); MIC80 against C. dubliniensis T-99 [5]: 1 mg/L (≈ 2.26 µM); MIC80 against C. albicans 90028 [6]: 0.06 mg/L (≈ 0.136 µM); MIC80 against C. albicans P-87 [7]: 0.03 mg/L (≈ 0.0678 µM); MIC80 against C. tropicalis 660 [8]: 1 mg/L (≈ 2.26 µM); MIC80 against C. albicans SC5314 [9]: 0.03 mg/L (≈ 0.0678 µM); MIC80 against C. albicans 24433 [10]: 0.12 mg/L (≈ 0.271 µM); MIC80 against C. guilliermondii T-47 [11]: 1 mg/L (≈ 2.26 µM); Antifungal potency (MIC80) in comparison with FLC, VOR or the corresponding stereoisomer [12]: more potent than the corresponding S-configured ibuprofen hybrid 4; MIC80 against C. albicans 742 [13]: 64 mg/L (≈ 145 µM)

Q: Which results are given for `O=C(Cc1ccccc1Nc1c(Cl)cccc1Cl)NC[C@](O)(Cn1cncn1)c1ccc(F)cc1F` [Hybrid 23]?
A: MIC against C. auris 5001 [1]: 2 mg/L (≈ 3.76 µM); MIC against C. auris 5002 [2]: 64 mg/L (≈ 120 µM); MIC80 against C. albicans SN152 [3]: 1 mg/L (≈ 1.88 µM); MIC80 against C. parapsilosis 22019 [4]: 0.5 mg/L (≈ 0.939 µM); MIC80 against C. dubliniensis T-99 [5]: 4 mg/L (≈ 7.51 µM); MIC80 against C. albicans 90028 [6]: 1 mg/L (≈ 1.88 µM); MIC80 against C. albicans P-87 [7]: 1 mg/L (≈ 1.88 µM); MIC80 against C. tropicalis 660 [8]: >64 mg/L; MIC80 against C. albicans SC5314 [9]: 1 mg/L (≈ 1.88 µM); MIC80 against C. albicans 24433 [10]: 1 mg/L (≈ 1.88 µM); MIC80 against C. guilliermondii T-47 [11]: 8 mg/L (≈ 15 µM); MIC80 against C. albicans 742 [13]: >64 mg/L

Q: Which “Effect on growth (OD600) of the double knockout mutant” value [14] does the source give for `CC(C(=O)O)c1ccc(-c2ccccc2)c(F)c1` (centres unmarked) [flurbiprofen] here?
A: Its value is “Dose-dependent growth reduction”.

Q: How did the “Effect on growth (OD600) of the double knockout mutant” value [14] turn out when `CC(C)Cc1ccc(C(C)C(=O)O)cc1` (centres unmarked) [ibuprofen] was run?
A: The value was “Dose-dependent growth reduction”.
